Assay results published in patent US20030134348A1, “Recombinant bioluminescent bacteria Escherichia coli DH5@/pSodaLux (EBHJ1) [KCTC 10098BP] for monitoring oxidative stress” (priority 2001, published 2003).

Columns and labels:
[1] = test system: Escherichia coli DH5@/pSodaLux (EBHJ1) [KCTC 10098BP]; assay type: cell-based; conditions: for bioluminescence in dependence on concentration of the toxic material: sodA promoter::LuxCDABE reporter, 96-well luminometer, 30° C., 0-2048 ppm, FIGS. 3-6
Description: The bioluminescent bacteria Escherichia coli DH5@/pSodaLux (EBHJ1) were cultured in a shaking incubator of 30° C. at 250 rpm, in the LB medium [DIFCO, USA] containing 25 μg/ml of kanamycin [Sigma Co., USA] until the OD reaches 0.8 at 600 nm. Then, 2 ml of the culture was cultured for about 4 hr in 100 ml of LB medium. […] The bioluminescence was measured at 30° C. with a 96-well luminometer [DYNEX Technologies, USA].
The bioluminescence is measured in BL (bioluminescence intensity). Increase in bioluminescence can be determined by comparing the bioluminescence when toxic material was injected (sample bioluminescence) and that when no toxic material was injected (control bioluminescence). The RBL (relative bioluminescence) is calculated by the following Equation 1. [formula]

[2] = test system: Escherichia coli DH5@/pSodaLux (EBHJ1) [KCTC 10098BP]; assay: Growth inhibition of the recombinant bioluminescent bacteria; assay type: cell-based; conditions: around 50 ppm

| SMILES | bioluminescence in dependence on concentration of the toxic material [1] | growth inhibition [2] | bioluminescence ([1]; around 50 ppm) |
| --- | --- | --- | --- |
| [Cl][Cd][Cl] [cadmium chloride] | the bioluminescence increased with the concentration |  |  |
| OO [hydrogen peroxide] | proportionally increasing bioluminescence |  |  |
| C[n+]1ccc(-c2cc[n+](C)cc2)cc1 [paraquat dichloride] | proportionally increasing bioluminescence | little growth inhibition | substantial bioluminescence |
